Results as given in the supplement of paper PMC12137928.
Where a name gives a salt, the structure may show the parent alone.

Tested on: HCT116
Conditions: 72 h
Outline: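 IC50 and maximal efficacy were derived from four-parameter Hill curve fits. The underlying CellTiter-Glo luminescence was scaled so that vehicle equals 0% and positive control equals -100%, and was then pattern-corrected. HCT116 cells had been seeded in 1536-well plates at 250 per well.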

| Compound | IC50 cell viability (ICRF193 0 nM) [µM] | IC50 cell viability (ICRF193 200 nM) [µM] |
| --- | --- | --- |
| CCC(C)(Oc1ccc(C2(c3ccc(OC(C)(CC)C(=O)O)cc3)CCCCC2)cc1)C(=O)O (configuration not stated) [Clinofibrate] | > 45.8 | > 45.8 |
| CC(Cc1ccccc1)NCc1ccccc1Cl (configuration not stated) [Clobenzorex hydrochloride] | > 45.8 | > 45.8 |
| CCC(=O)O[C@]1(C(=O)CCl)[C@@H](C)C[C@H]2[C@@H]3CCC4=CC(=O)C=C[C@]4(C)[C@@]3(F)[C@@H](O)C[C@@]21C [Clobetasol propionate] | > 45.8 | > 45.8 |
| CC(CN(C)C)C(C)(O)Cc1ccc(Cl)cc1 (configuration not stated) [Clobutinol hydrochloride] | > 45.8 | > 45.8 |
| C[C@@H]1C[C@H]2[C@@H]3C[C@H](F)C4=CC(=O)C=C[C@]4(C)[C@@]3(Cl)[C@@H](O)C[C@]2(C)[C@H]1C(=O)COC(=O)C(C)(C)C [Clocortolone pivalate] | > 45.8 | > 45.8 |
| O=P(O)(O)C(Cl)(Cl)P(=O)(O)O [Clodronate] | > 45.8 | > 45.8 |
| CC(C)/N=c1\cc2n(-c3ccc(Cl)cc3)c3ccccc3nc-2cc1Nc1ccc(Cl)cc1 [Clofazimine] | > 45.8 | > 45.8 |
| NS(=O)(=O)c1ccc(Cl)c(S(N)(=O)=O)c1 [Clofenamide] | > 45.8 | > 45.8 |
| CCOC(=O)C(C)(C)Oc1ccc(Cl)cc1 [Clofibrate] | > 45.8 | > 45.8 |
| Cc1ncsc1CCCl [Clomethiazole] | > 45.8 | > 45.8 |
| Clc1ccc(C(OCCN2CCCCC2)c2ccccc2)cc1 (configuration not stated) [Cloperastine hydrochloride] | > 45.8 | > 45.8 |
| Cc1nc(C)c(Cl)c(O)c1Cl [Clopidol] | > 45.8 | > 45.8 |
| O=C(O)CCC/C=C\CC1C(O)CC(O)C1/C=C/C(O)COc1cccc(Cl)c1 (configuration not stated) [Cloprostenol (sodium salt)] | > 45.8 | > 45.8 |
| Oc1ccc(Cl)cc1Cc1ccccc1 [Clorophene] | > 45.8 | > 45.8 |
| CC(C)NCC(O)c1ccccc1Cl (configuration not stated) [Clorprenaline hydrochloride] | > 45.8 | > 45.8 |
| Nc1cc(C(Cl)=C(Cl)Cl)c(S(N)(=O)=O)cc1S(N)(=O)=O [Clorsulon] | > 45.8 | > 45.8 |
| CN1CCN(C2=Nc3ccccc3Sc3ccc(Cl)cc32)CC1 [Clothiapine] | > 45.8 | > 45.8 |
| Cc1onc(-c2ccccc2Cl)c1C(=O)N[C@@H]1C(=O)N2[C@@H]1SC(C)(C)[C@@H]2C(=O)O [Cloxacillin sodium] | > 45.8 | > 45.8 |
| O=C1CN2CCOC2(c2ccccc2Cl)c2cc(Cl)ccc2N1 (configuration not stated) [Cloxazolam] | > 45.8 | > 45.8 |
| Oc1ccc(Cl)c2cccnc12 [Cloxyquin] | > 45.8 | > 45.8 |
| CN1CCN(C2=Nc3cc(Cl)ccc3Nc3ccccc32)CC1 [Clozapine] | > 45.8 | > 45.8 |
| Cc1c(C(=O)O)c(O)cc2c1C(=O)c1c(O)c(C3OC(CO)C(O)C(O)C3O)c(O)c(O)c1C2=O (configuration not stated) [Cochineal] | > 45.8 | > 45.8 |
| COC1=C(OC)C(=O)C(C/C=C(\C)CC/C=C(\C)CC/C=C(\C)CC/C=C(\C)CC/C=C(\C)CC/C=C(\C)CC/C=C(\C)CC/C=C(\C)CC/C=C(\C)CCC=C(C)C)=C(C)C1=O [Coenzyme Q10] | > 45.8 | > 45.8 |
| CCOP(=S)(OCC)Oc1ccc2c(C)c(Cl)c(=O)oc2c1 [Coumaphos] | > 45.8 | > 45.8 |
| CNC(C)CC1CCCC1 (configuration not stated) [Cyclopentamine hydrochloride] | > 45.8 | > 45.8 |
| O=P1(N(CCCl)CCCl)NCCCO1 (configuration not stated) [Cyclophosphamide] | > 45.8 | > 45.8 |
| COP(=S)(OC)Oc1ccc(S(N)(=O)=O)cc1 [Cythioate] | > 45.8 | > 45.8 |

Next, values leading:

| IC50 cell viability (ICRF193 0 nM) [µM] | IC50 cell viability (ICRF193 200 nM) [µM] | Compound |
| --- | --- | --- |
| > 45.8 | > 45.8 | CC(=O)OCC(=O)[C@@]1(O)CC[C@H]2[C@@H]3CCC4=CC(=O)CC[C@]4(C)[C@H]3C(=O)C[C@@]21C [Cortisone acetate] |
| > 45.8 | > 45.8 | O=c1ccc2ccccc2o1 [Coumarin] |
| > 45.8 | > 45.8 | CC(/C=C/C=C(\C)C(=O)O[C@@H]1O[C@H](CO[C@@H]2O[C@H](CO)[C@@H](O)[C@H](O)[C@H]2O)[C@@H](O)[C@H](O)[C@H]1O)=C\C=C\C=C(C)\C=C\C=C(/C)C(=O)O[C@@H]1O[C@H](CO[C@@H]2O[C@H](CO)[C@@H](O)[C@H](O)[C@H]2O)[C@@H](O)[C@H](O)[C@H]1O [Crocin?] |
| > 45.8 | > 45.8 | CCOC(=O)c1cc(=O)c2c(OCC(COc3cccc4oc(C(=O)OCC)cc(=O)c34)OC(=O)[C@@H](N)CCCCN)cccc2o1 [Cromoglicate lisetil] |
| > 45.8 | > 45.8 | CC=CC(=O)N(CC)c1ccccc1C [Crotamiton] |
| > 45.8 | > 45.8 | CC1CC(OC(=O)C(O)c2ccccc2)CC(C)(C)C1 (configuration not stated) [Cyclandelate] |
| > 45.8 | > 45.8 | CN1CCN(C(c2ccccc2)c2ccccc2)CC1 [Cyclizine hydrochloride] |
| > 45.8 | > 45.8 | CC(=O)Oc1ccc(C(=C2CCCCC2)c2ccc(OC(C)=O)cc2)cc1 [Cyclofenil] |
| > 45.8 | > 45.8 | CC1CCCCN1CCCOC(=O)c1ccc(OC2CCCCC2)cc1 (configuration not stated) [Cyclomethycaine] |
| > 45.8 | > 45.8 | NS(=O)(=O)c1cc2c(cc1Cl)NC(CC1CCCC1)NS2(=O)=O (configuration not stated) [Cyclopenthiazide] |
| > 45.8 | > 45.8 | CN(C)CCOC(=O)C(c1ccccc1)C1(O)CCCC1 (configuration not stated) [Cyclopentolate hydrochloride] |
| > 45.8 | > 45.8 | NS(=O)(=O)c1cc2c(cc1Cl)NC(C1CC3C=CC1C3)NS2(=O)=O (configuration not stated) [Cyclothiazide] |
| > 45.8 | > 45.8 | C/C(=C1\CCOC(=O)S1)N(C=O)Cc1cnc(C)nc1N [Cycotiamine] |
| > 45.8 | > 45.8 | OC(CCN1CCCCC1)(c1ccccc1)C1CCCC1 (configuration not stated) [Cycrimine Hydrochloride] |
| > 45.8 | > 45.8 | CN1CCC(=C2c3ccccc3C=Cc3ccccc32)CC1 [Cyproheptadine hydrochloride] |
| > 45.8 | > 45.8 | CC(=O)O[C@]1(C(C)=O)CC[C@H]2[C@@H]3C=C(Cl)C4=CC(=O)[C@@H]5C[C@@H]5[C@]4(C)[C@H]3CC[C@@]21C [Cyproterone acetate] |
| > 45.8 | > 45.8 | NCCS [Cysteamine hydrochloride] |
| > 45.8 | > 45.8 | O=C(O)C(O)C(O)C(=O)O (stereo not drawn) [D(-)-Tartaric acid] |
| > 45.8 | > 45.8 | OC[C@H]1O[C@H](O[C@H]2[C@H](O)[C@@H](O)C(O)O[C@@H]2CO)[C@H](O)[C@@H](O)[C@@H]1O (stereo partly drawn) [D-(+)-MALTOSE] |
| > 45.8 | > 45.8 | O=C(O)[C@H](O)c1ccccc1 [D-(-)-Mandelic acid] |

| IC50 cell viability (ICRF193 0 nM) [µM] | IC50 cell viability (ICRF193 200 nM) [µM] | Compound |
| --- | --- | --- |
| > 45.8 | > 45.8 | C[C@@H](N)C(=O)O [D-Alanine] |
| > 45.8 | > 45.8 | N[C@H](CC(=O)O)C(=O)O [D-Aspartic acid] |
| > 45.8 | > 45.8 | CC12CCC(CC1=O)C2(C)C [D-Camphor] |
| > 45.8 | > 45.8 | N[C@@H]1CONC1=O [D-Cycloserine] |
| > 45.8 | > 45.8 | OC[C@@H](O)[C@H](O)[C@H](O)[C@@H](O)CO [D-Galactitol] |
| > 45.8 | > 45.8 | O=C1O[C@@H]2[C@@H](O)[C@H](O)O[C@@H]2C1O (stereo partly drawn) [D-Glucuronolactone] |
| > 45.8 | > 45.8 | N[C@H](CCC(=O)O)C(=O)O [D-Glutamic acid] |
| > 45.8 | > 45.8 | NC(=O)CC[C@@H](N)C(=O)O [D-Glutamine] |
| > 45.8 | > 45.8 | N[C@H](Cc1c[nH]cn1)C(=O)O [D-HISTIDINE] |
| > 45.8 | > 45.8 | CC(C)C[C@@H](N)C(=O)O [D-Leucine] |
| > 45.8 | > 45.8 | CN1CCC[C@@H]1c1cccnc1 [D-Nicotine] |
| > 45.8 | > 45.8 | CC(C)(CO)[C@@H](O)C(=O)NCCC(=O)NCCSSCCNC(=O)CCNC(=O)[C@H](O)C(C)(C)CO [D-Pantethine] |
| > 45.8 | > 45.8 | N[C@H](Cc1ccccc1)C(=O)O [D-Phenylalanine] |
| > 45.8 | > 45.8 | N[C@H](CO)C(=O)O [D-SERINE] |
| > 45.8 | > 45.8 | Cc1c(C)c2c(c(C)c1OC(=O)CCC(=O)O)CC[C@@](C)(CCC[C@H](C)CCC[C@H](C)CCCC(C)C)O2 [D-alpha-Tocopherol succinate] |
| > 45.8 | > 45.8 | Cc1cc(O)cc2c1O[C@](C)(CCC[C@H](C)CCC[C@H](C)CCCC(C)C)CC2 [D-delta-Tocopherol] |
| > 45.8 | > 45.8 | CCN(CC)C(=O)c1cccc(C)c1 [DEET] |
| > 45.8 | > 45.8 | CN(C)CC(c1ccc(O)cc1)C1(O)CCCCC1 (configuration not stated) [DESVENLAFAXINE SUCCINATE] |
| > 45.8 | > 45.8 | OC[C@H]1OC(O)[C@H](O)[C@@H](O)[C@@H]1O (some centres not stated) [DEXTROSE] |
